These molecules were tested against T1, ERR1 (also known as ERR-α or ERR-1) (Homo sapiens, UniProt P11474) (assay: TR-FRET assay: disruption of co-activator peptide binding to ERR1 LBD). Conditions: 6His-tagged ERR1 LBD 6 nM, GST-SRC-2 peptide 6 nM, 25° C., 4-18 hours; average of 3 independent experiments.
T1 construct: the ^6His-tagged-ERR1 LBD
T1 sequence (P11474 193-421 limits assumed): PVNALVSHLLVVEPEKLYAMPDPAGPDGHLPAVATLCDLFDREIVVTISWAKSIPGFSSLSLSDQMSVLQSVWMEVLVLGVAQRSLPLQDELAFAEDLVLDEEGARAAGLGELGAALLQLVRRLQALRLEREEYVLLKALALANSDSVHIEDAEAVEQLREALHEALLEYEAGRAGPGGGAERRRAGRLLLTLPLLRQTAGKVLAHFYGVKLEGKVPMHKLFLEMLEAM
Format: biochemical
Protocol: Time-Resolved Fluorescence Resonance Energy Transfer (TR-FRET) experiments were performed to examine the functional response of ERR1 (also known as ERR-α or ERR-1) ligands. The TR-FRET assay described herein relied on the conformation of ERR1 for binding to a co-activator peptide: when a test compound binds to ERR1 and alters its conformation, it can disrupt the binding of the co-activator peptide. The components of this homogeneous secondary assay included: the ^6His-tagged-ERR1 LBD, a GST-labeled-hSRC2 co-activator polypeptide and a fluorescent donor/acceptor pair from CIS bio international htrf/bioassays (Bedford, Mass.) using both an α-GST Europium Cryptate (Eu) label and an α^6His-XL665 (allophycocyanin) fluorophore.
For TR-FRET measurements, the reaction was buffered in 25 mM Tris pH 8, 2.5 mM Hepes, 20 mM KCl, 1 mM DTT, and 0.05 mg/mL BSA (-lipids). […] Reactions were allowed to reach equilibrium at 25° C. for 4-18 hours before collecting data on the Analyst from LJL Biosystems (Molecular Devices Sunnyvale, Calif.). […] Dose response curves were fitted using a hyperbolic equation and the data reported is the average of 3 independent experiments.

Q: With `COc1cc(/C=C2\SC(NCc3ccncc3)=NC2=O)ccc1Oc1ccc(C#N)cc1C(F)(F)F` [Compound 24, 4-(2-Methoxy-4-{4-oxo-2-[(pyridin-4-ylmethyl)-amino]-4H-thiazol-5-ylidenemethyl}-phenoxy)-3-trifluoromethyl-benzonitrile] as the molecule, how does the EC50 read?
A: The EC50 was 16 nM.

Q: How did the EC50 turn out when `COC(=O)c1ccc(Oc2ccc(/C=C3\SC(N4CCNC(=O)C4)=NC3=O)cc2OC)c(C(F)(F)F)c1` [Example 54, 4-{2-Methoxy-4-[4-oxo-2-(3-oxo-piperazin-1-yl)-4H-thiazol-5-ylidenemethyl]-phenoxy}-3-trifluoromethyl-benzoic acid methyl ester] was run?
A: Its EC50 is 74 nM.

Q: With `CN1CCN(C2=NC(=O)/C(=C/c3ccc(Oc4ccc(C#N)cc4C(F)(F)F)c(F)c3)S2)CC1` [Compound 8, 4-{2-Fluoro-4-[2-(4-methyl-piperazin-1-yl)-4-oxo-4H-thiazol-5-ylidenemethyl]-phenoxy}-3-trifluoromethyl-benzonitrile] as the molecule, how does the EC50 read?
A: The EC50 was 14 nM.

Q: For `N#Cc1ccc(Oc2ccc(/C=C3\SC(NCCN4CCNC(=O)C4)=NC3=O)cc2F)c(C(F)(F)F)c1` [Example 99, 4-(2-Fluoro-4-{4-oxo-2-[2-(3-oxo-piperazin-1-yl)-ethylamino]-4H-thiazol-5-ylidenemethyl}-phenoxy)-3-trifluoromethyl-benzonitrile], which EC50 is on record?
A: The EC50 was 18 nM.

Q: `COc1cc(/C=C2\SC(NCc3ccsc3)=NC2=O)ccc1Oc1ccc(C#N)cc1C(F)(F)F` [Example 89, 4-(2-Methoxy-4-{4-oxo-2-[(thiophen-3-ylmethyl)-amino]-4H-thiazol-5-ylidenemethyl}-phenoxy)-3-trifluoromethyl-benzonitrile] was tested. Which EC50 did it give?
A: Its EC50 is 25 nM.

Q: Which EC50 does the source give for `O=C1CN(C2=NC(=O)/C(=C/c3ccc(Oc4ccc(Cl)cc4C(F)(F)F)c(F)c3)S2)CCN1` [Example 66, 4-{5-[4-(4-Chloro-2-trifluoromethyl-phenoxy)-3-fluoro-benzylidene]-4-oxo-4,5-dihydro-thiazol-2-yl}-piperazin-2-one] here?
A: Its EC50 is 4 nM.

Q: With `COc1cc(/C=C2\SC(N3CCNC(=O)C3)=NC2=O)ccc1Oc1ccc(C(N)=O)cc1C(F)(F)F` [Example 115, 4-{2-Methoxy-4-[4-oxo-2-(3-oxo-piperazin-1-yl)-4H-thiazol-5-ylidenemethyl]-phenoxy}-3-trifluoromethyl-benzamide] as the molecule, how does the EC50 read?
A: Its EC50 is 89 nM.

Q: How did the EC50 turn out when `COc1cc(/C=C2\SC(NCCN3CCCC3=O)=NC2=O)ccc1Oc1ccc(Cl)cc1C(F)(F)F` [Example 60, 5-[4-(4-Chloro-2-trifluoromethyl-phenoxy)-3-methoxy-benzylidene]-2-[2-(2-oxo-pyrrolidin-1-yl)-ethylamino]-thiazol-4-one] was run?
A: Its EC50 is 4 nM.

Q: Which EC50 does the source give for `COc1cc(/C=C2\SC(N3CCN(CCO)CC3)=NC2=O)ccc1Oc1ccc(C#N)cc1C(F)(F)F` [Compound 16, 4-(4-{2-[4-(2-Hydroxy-ethyl)-piperazin-1-yl]-4-oxo-4H-thiazol-5-ylidenemethyl}-2-methoxy-phenoxy)-3-trifluoromethyl-benzonitrile] here?
A: Its EC50 is 19 nM.

Q: `N#Cc1ccc(Oc2ccc(/C=C3\SC(NCCF)=NC3=O)cc2F)c(C(F)(F)F)c1` [Example 96, 4-{2-Fluoro-4-[2-(2-fluoro-ethylamino)-4-oxo-4H-thiazol-5-ylidenemethyl]-2-fluoro-phenoxy}-3-trifluoromethyl-benzonitrile] was tested. Which EC50 did it give?
A: The EC50 was 25 nM.

Q: With `COc1cc(/C=C2\SC(NCc3nnn[nH]3)=NC2=O)ccc1Oc1ccc(C#N)cc1C(F)(F)F` [Example 107, 4-(2-Methoxy-4-{4-oxo-2-[(1H-tetrazol-5-ylmethyl)-amino]-4H-thiazol-5-ylidenemethyl}-phenoxy)-3-trifluoromethyl-benzonitrile] as the molecule, how does the EC50 read?
A: The EC50 was 5 nM.

Q: Which EC50 does the source give for `COc1cc(/C=C2\SC(N3CCN(C)CC3)=NC2=O)ccc1Oc1ccc(C#N)cc1C(F)(F)F` [Compound 7, 4-{2-Methoxy-4-[2-(4-methyl-piperazin-1-yl)-4-oxo-4H-thiazol-5-ylidenemethyl]-phenoxy}-3-trifluoromethyl-benzonitrile] here?
A: The EC50 was 11 nM.

Q: With `COc1cc(/C=C2\SC(NCCCN3CCOCC3)=NC2=O)ccc1Oc1ccc(C#N)cc1C(F)(F)F` [Example 27, 4-{2-Methoxy-4-[2-(3-morpholin-4-yl-propylamino)-4-oxo-4H-thiazol-5-ylidenemethyl]-phenoxy}-3-trifluoromethyl-benzonitrile] as the molecule, how does the EC50 read?
A: The EC50 was 11 nM.

Q: Which EC50 does the source give for `COC(=O)CCCNC1=NC(=O)/C(=C/c2ccc(Oc3ccc(C#N)cc3C(F)(F)F)c(OC)c2)S1` [Example 82, 4-{5-[4-(4-Cyano-2-trifluoromethyl-phenoxy)-3-methoxy-benzylidene]-4-oxo-4,5-dihydro-thiazol-2-ylamino}-butyric acid methyl ester] here?
A: The EC50 was 55 nM.

Q: `N#Cc1ccc(Oc2ccc(/C=C3\SC(NCC(F)F)=NC3=O)cc2F)c(C(F)(F)F)c1` [Example 97, 4-{4-[2-(2,2-Difluoro-ethylamino)-4-oxo-4H-thiazol-5-ylidenemethyl]-2-fluoro-phenoxy}-3-trifluoromethyl-benzonitrile] was tested. Which EC50 did it give?
A: The EC50 was 40 nM.

Q: With `COc1cc(/C=C2\SC(NCCCN3CCCC3=O)=NC2=O)ccc1Oc1ccc(C#N)cc1C(F)(F)F` [Compound 22, 4-(2-Methoxy-4-{4-oxo-2-[3-(2-oxo-pyrrolidin-1-yl)-propylamino]-4H-thiazol-5-ylidenemethyl}-phenoxy)-3-trifluoromethyl-benzonitrile] as the molecule, how does the EC50 read?
A: The EC50 was 9 nM.

Q: With `COc1cc(/C=C2\SC(NC3CCN(CCO)CC3)=NC2=O)ccc1Oc1ccc(C#N)cc1C(F)(F)F` [Example 111, 4-(4-{2-[1-(2-Hydroxy-ethyl)-piperidin-4-ylamino]-4-oxo-4H-thiazol-5-ylidenemethyl}-2-methoxy-phenoxy)-3-trifluoromethyl-benzonitrile] as the molecule, how does the EC50 read?
A: Its EC50 is 15 nM.

Q: With `COc1cc(/C=C2\SC(NCCNC(C)=O)=NC2=O)ccc1Oc1ccc(C#N)cc1C(F)(F)F` [Example 71, N-(2-{5-[4-(4-Cyano-2-trifluoromethyl-phenoxy)-3-methoxy-benzylidene]-4-oxo-4,5-dihydro-thiazol-2-ylamino}-ethyl)-acetamide] as the molecule, how does the EC50 read?
A: Its EC50 is 13 nM.

Q: `COc1cc(/C=C2\SC(NCCN3CCNC(=O)C3)=NC2=O)ccc1Oc1ccc(C#N)cc1C(F)(F)F` [Example 105, 4-(2-Methoxy-4-{4-oxo-2-[2-(3-oxo-piperazin-1-yl)-ethylamino]-4H-thiazol-5-ylidenemethyl}-phenoxy)-3-trifluoromethyl-benzonitrile] was tested. Which EC50 did it give?
A: Its EC50 is 8 nM.

Q: How did the EC50 turn out when `COc1cc(/C=C2\SC(NCCC3CCOCC3)=NC2=O)ccc1Oc1ccc(C#N)cc1C(F)(F)F` [Example 109, 4-(2-Methoxy-4-{4-oxo-2-[2-(tetrahydro-pyran-4-yl)-ethylamino]-4H-thiazol-5-ylidenemethyl}-phenoxy)-3-trifluoromethyl-benzonitrile] was run?
A: The EC50 was 5 nM.

Q: For `COc1cc(/C=C2\SC(N3CC[C@@H](F)C3)=NC2=O)ccc1Oc1ccc(C#N)cc1C(F)(F)F` [Example 90, 4-{4-[2-(3-Fluoro-pyrrolidin-1-yl)-4-oxo-4H-thiazol-5-ylidenemethyl]-2-methoxy-phenoxy}-3-trifluoromethyl-benzonitrile], which EC50 is on record?
A: The EC50 was 13 nM.

Q: `COc1cc(/C=C2\SC(NCc3ccccn3)=NC2=O)ccc1Oc1ccc(C#N)cc1C(F)(F)F` [Compound 17, 4-(2-Methoxy-4-{4-oxo-2-[(pyridin-2-ylmethyl)-amino]-4H-thiazol-5-ylidenemethyl}-phenoxy)-3-trifluoromethyl-benzonitrile] was tested. Which EC50 did it give?
A: The EC50 was 29 nM.

Q: Which EC50 does the source give for `COc1cc(/C=C2\SC(NCCCN3CCNC(=O)C3)=NC2=O)ccc1Oc1ccc(C#N)cc1C(F)(F)F` [Example 101, 4-(2-Methoxy-4-{4-oxo-2-[3-(3-oxo-piperazin-1-yl)-propylamino]-4H-thiazol-5-ylidenemethyl}-phenoxy)-3-trifluoromethyl-benzonitrile] here?
A: Its EC50 is 11 nM.

Q: How did the EC50 turn out when `COc1cc(/C=C2\SC(N3CCC(N(C)C)CC3)=NC2=O)ccc1Oc1ccc(C#N)cc1C(F)(F)F` [Example 86, 4-{4-[2-(4-Dimethylamino-piperidin-1-yl)-4-oxo-4H-thiazol-5-ylidenemethyl]-2-methoxy-phenoxy}-3-trifluoromethyl-benzonitrile] was run?
A: The EC50 was 10 nM.

Q: For `COc1cc(/C=C2\SC(NCCC(=O)N3CCOCC3)=NC2=O)ccc1Oc1ccc(C#N)cc1C(F)(F)F` [Example 73, 4-{2-Methoxy-4-[2-(3-morpholin-4-yl-3-oxo-propylamino)-4-oxo-4H-thiazol-5-ylidenemethyl]-phenoxy}-3-trifluoromethyl-benzonitrile], which EC50 is on record?
A: Its EC50 is 13 nM.

Q: `COC(=O)c1ccc(Oc2ccc(/C=C3\SC(N4CC(C(=O)O)C4)=NC3=O)cc2OC)c(C(F)(F)F)c1` [Example 52, 1-{5-[3-Methoxy-4-(4-methoxycarbonyl-2-trifluoromethyl-phenoxy)-benzylidene]-4-oxo-4,5-dihydro-thiazol-2-yl}-azetidine-3-carboxylic acid] was tested. Which EC50 did it give?
A: The EC50 was 2 nM.

Q: `CN(C)CCCNC1=NC(=O)/C(=C/c2ccc(Oc3ccc(C#N)cc3C(F)(F)F)c(F)c2)S1` [Example 48, 4-{4-[2-(3-Dimethylamino-propylamino)-4-oxo-4H-thiazol-5-ylidenemethyl]-2-fluoro-phenoxy}-3-trifluoromethyl-benzonitrile] was tested. Which EC50 did it give?
A: Its EC50 is 9 nM.

Reference: patent publication US8580832B2, “Substituted phenoxy aminothiazolones as estrogen related receptor-α modulators” (Janssen Pharmaceutica N.V., priority 2007, dated 2013)
